Reference: BindingDB's records for patent US20250313563 (The Broad Institute, 2025)
Several values for one entry are separate records, joined by “and”; a condition that tells them apart may be missing. Identical values can stand only once.

Tests used:
[1] = target: Glycogen synthase kinase-3 beta (Homo sapiens, UniProt P49841); assay: TR-FRET Assay
Outline: (§1)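 30 min preinc w/ cpd in assay buffer → kinase rxn → EDTA quench → add detection mix (40 nM SA-d2, 2 nM Tb-pSer641 Ab) → TR-FRET read.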

[2] = target: Glycogen synthase kinase-3 alpha (Homo sapiens, UniProt P49840); assay: TR-FRET Assay
Outline: as §1

Chain of Glycogen synthase kinase-3 beta (P49841 whole entry): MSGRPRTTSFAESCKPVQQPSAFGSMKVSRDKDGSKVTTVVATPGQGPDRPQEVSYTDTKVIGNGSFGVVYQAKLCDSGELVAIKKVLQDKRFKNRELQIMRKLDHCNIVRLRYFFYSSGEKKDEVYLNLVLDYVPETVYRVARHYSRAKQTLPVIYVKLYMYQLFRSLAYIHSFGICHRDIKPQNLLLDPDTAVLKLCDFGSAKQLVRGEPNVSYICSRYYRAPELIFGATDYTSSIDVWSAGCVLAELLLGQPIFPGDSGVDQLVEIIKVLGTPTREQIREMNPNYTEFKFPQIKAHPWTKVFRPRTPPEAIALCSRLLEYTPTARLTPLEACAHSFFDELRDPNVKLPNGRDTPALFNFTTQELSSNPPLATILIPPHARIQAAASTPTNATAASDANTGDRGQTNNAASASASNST
Chain of Glycogen synthase kinase-3 alpha (P49840 whole entry): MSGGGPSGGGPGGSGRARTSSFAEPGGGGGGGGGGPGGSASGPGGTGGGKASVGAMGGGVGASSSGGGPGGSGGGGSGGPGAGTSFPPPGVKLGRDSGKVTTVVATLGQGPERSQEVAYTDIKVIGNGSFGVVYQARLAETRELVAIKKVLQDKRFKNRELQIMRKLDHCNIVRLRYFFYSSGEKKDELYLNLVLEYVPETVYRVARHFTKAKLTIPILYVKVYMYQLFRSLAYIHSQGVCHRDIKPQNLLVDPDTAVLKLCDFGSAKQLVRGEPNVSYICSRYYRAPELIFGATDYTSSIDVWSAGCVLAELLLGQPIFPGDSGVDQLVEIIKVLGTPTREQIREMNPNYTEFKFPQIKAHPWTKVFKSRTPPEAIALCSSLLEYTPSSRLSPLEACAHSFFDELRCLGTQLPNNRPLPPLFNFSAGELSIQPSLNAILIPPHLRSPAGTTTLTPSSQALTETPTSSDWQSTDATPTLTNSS

SMILES	IC50 [1]	IC50 [2]
CC[C@@]1(c2cccc(-c3cnn(-c4ccccc4)c3C(F)(F)F)c2)C2=CN=NC2NC2=C1C(=O)NC(C)(C)C2 (stereo not given in full) [US20250313563, Compound 951837]	0.1 to 1 µM	0.1 to 1 µM
CC[C@@]1(c2cccc(-c3cnn(Cc4ccc(OC)cc4)c3)c2)C2=CN=NC2NC2=C1C(=O)NC(C)(C)C2 (stereo not given in full) [US20250313563, Compound 951838]	1 to 5 µM	0.1 to 1 µM
CC1(C)CC(=O)C2=C(NC3=C(CN=N3)C23CCN(S(=O)(=O)c2ccccc2C(F)F)CC3)[C@H]1F [US20250313563, Compound 951839]	0.1 to 1 µM	< 0.1 µM
CC[C@@]1(c2cccc(-c3cnn(Cc4cccc(F)c4F)c3)c2)C2=CN=NC2NC2=C1C(=O)NC(C)(C)C2 (stereo not given in full) [US20250313563, Compound 951840]	0.1 to 1 µM	< 0.1 µM
CC[C@@]1(c2cccc(-c3cc(C(C)C)nn3C)c2)C2=CN=NC2NC2=C1C(=O)NC(C)(C)C2 (stereo not given in full) [US20250313563, Compound 951842]	1 to 5 µM	0.1 to 1 µM
CC[C@@]1(c2cccc(-c3cc(C(C)(C)C)nn3C)c2)C2=CN=NC2NC2=C1C(=O)NC(C)(C)C2 (stereo not given in full) [US20250313563, Compound 951843]	> 5 µM	0.1 to 1 µM
CC[C@@]1(c2cccc(-c3c(C#N)c(C)nn3C)c2)C2=CN=NC2NC2=C1C(=O)NC(C)(C)C2 (stereo not given in full) [US20250313563, Compound 951844]	0.1 to 1 µM	< 0.1 µM
CC[C@]1(c2cccc(-c3cc(C)nn3-c3ccccc3)c2)C2=CN=NC2NC2=C1C(=O)NC(C)(C)C2 (stereo not given in full) [US20250313563, Compound 951845]	0.1 to 1 µM	0.1 to 1 µM
CC1(C)CC(=O)C2=C(NC3=C(CN=N3)C23CCN(S(=O)(=O)c2ccccc2C(F)F)CC3)[C@@H]1F [US20250313563, Compound 951846]	0.1 to 1 µM	< 0.1 µM
CC[C@@]1(c2cccc(-c3cnn(Cc4cccc(C(F)(F)F)c4)c3)c2)C2=CN=NC2NC2=C1C(=O)NC(C)(C)C2 (stereo not given in full) [US20250313563, Compound 951848]	0.1 to 1 µM	< 0.1 µM
CC1(C)CC(=O)C2=C(C1)NC1=C(CN=N1)[C@]21CCN(S(=O)(=O)c2cccc(F)c2)C1 [US20250313563, Compound 951861]	0.1 to 1 µM	0.1 to 1 µM
CC1(C)CC(=O)C2=C(C1)NC1=C(CN=N1)[C@@]21CCN(S(=O)(=O)c2cccc(F)c2)C1 [US20250313563, Compound 951862]	< 0.1 µM	< 0.1 µM
Cc1cccc(S(=O)(=O)N2CC[C@@]3(C2)C2=C(N=NC2)NC2=C3C(=O)CC(C)(C)C2)c1 [US20250313563, Compound 951863]	0.1 to 1 µM	0.1 to 1 µM
Cc1cccc(S(=O)(=O)N2CC[C@]3(C2)C2=C(N=NC2)NC2=C3C(=O)CC(C)(C)C2)c1 [US20250313563, Compound 951864]	< 0.1 µM and 1 to 5 µM	< 0.1 µM
CC[C@]1(c2cccc(C(F)(F)F)c2)C2=CN=NC2NC2=C1C(=O)N(c1cc(C)n(C)n1)CC2 (stereo not given in full) [US20250313563, Compound 951939]	0.1 to 1 µM	< 0.1 µM
CC[C@@]1(c2cccc(Oc3ncccn3)c2)C2=C(CC(C)(C)NC2=O)NC2N=NC(F)=C21 (stereo not given in full) [US20250313563, Compound 951944]	> 5 µM	1 to 5 µM
CC[C@]1(c2cccc(C(F)F)c2)C2=C(CC(C)(C)NC2=O)NC2N=NC(C(F)(F)F)=C21 (stereo not given in full) [US20250313563, Compound 951946]	1 to 5 µM	0.1 to 1 µM
CC[C@]1(c2cccc(Oc3ncccn3)c2)C2=C(CC(C)(C)NC2=O)NC2N=NC(F)=C21 (stereo not given in full) [US20250313563, Compound 951949]	0.1 to 1 µM and > 5 µM	< 0.1 µM and 0.1 to 1 µM
CC[C@@]1(c2cccc(C(F)(F)F)c2)C2=CN=NC2NC2=C1C(=O)N(c1cc(C)n(C)n1)CC2 (stereo not given in full) [US20250313563, Compound 951954]	> 5 µM	> 5 µM
CC[C@@]1(c2cccc(-c3cnn(-c4ccncn4)c3)c2)C2=CN=NC2NC2=C1C(=O)NC(C)(C)C2 (stereo not given in full) [US20250313563, Compound 952016]	1 to 5 µM	0.1 to 1 µM
CC[C@@]1(c2cccc(-c3cnn(CCc4ccccc4)c3)c2)C2=CN=NC2NC2=C1C(=O)NC(C)(C)C2 (stereo not given in full) [US20250313563, Compound 952017]	0.1 to 1 µM	< 0.1 µM
CC[C@@]1(c2cccc(-c3cc(C(F)(F)F)nn3C)c2)C2=CN=NC2NC2=C1C(=O)NC(C)(C)C2 (stereo not given in full) [US20250313563, Compound 952018]	1 to 5 µM	0.1 to 1 µM
CC[C@@]1(c2cccc(-c3cnn4c3OCCC4)c2)C2=CN=NC2NC2=C1C(=O)NC(C)(C)C2 (stereo not given in full) [US20250313563, Compound 952019]	0.1 to 1 µM	< 0.1 µM
CC[C@@]1(c2cccc(-c3cnn(CCN4CCCC4)c3)c2)C2=CN=NC2NC2=C1C(=O)NC(C)(C)C2 (stereo not given in full) [US20250313563, Compound 952022]	1 to 5 µM	0.1 to 1 µM
CC[C@@]1(c2cccc(-c3cc(C4CCCC4)nn3C)c2)C2=CN=NC2NC2=C1C(=O)NC(C)(C)C2 (stereo not given in full) [US20250313563, Compound 952023]	1 to 5 µM	0.1 to 1 µM
